From publication PMC7320011, “Rationally designed ruthenium complexes for 1- and 2-photon photodynamic therapy” (Nature Communications, 2020)
Like-named read-outs stand apart in the source and are kept apart here.

Columns and labels:
[1] = Two-photon absorption cross section; assay type: physicochemical; settings: dichloromethane
Description: The two-photon absorption cross section spectra of the sample was determined upon direction comparison to Rhodamine B. The sample was irradiated with an OpoletteTM 355II (pulse width ≤ 100 fs, 80 MHz repetition rate, Spectra Physics Inc.) laser. The experimental excitation and detection conditions were conducted with negligible reabsorption processes, which could affect two-photon absorption measurements. The quadratic dependence of the two-photon induced luminescence intensity on the excitation power was verified at an excitation wavelength of 800 nm. The two-photon absorption cross section was calculated using the following equation:1 σ2,sample=σ2,reference×Φreference×creference×Isample×nsample/Φsample×csample×Ireference×nreference,
σ2 = two-photon cross section, Φ = luminescence quantum yield, c = concentration, I = integrated luminescence intensity, n = refractive index

[2] = Emission and luminescence quantum yield; assay type: physicochemical; settings: acetonitrile
Description: The absorption spectra of the sample was measured with a SpectraMax M2 Spectrometer (Molecular Devices). For the measurements of the emission, the sample was irradiated at 355 nm with a NT342B Nd-YAG pumped optical parametric oscillator (Ekspla). The emission was focused at right angle to the excitation pathway and directed to a Princeton Instruments Acton SP-2300i monochromator. The signal was detected with a XPI-Max 4 CCD camera (Princeton Instruments).
The sample was prepared in an acetonitrile solution with an absorption of 0.1 at 355 nm. The sample was irradiated at 355 nm with a NT342B Nd-YAG pumped optical parametric oscillator (Ekspla). The emission was focused at right angle to the excitation pathway and directed to a Princeton Instruments Acton SP-2300i monochromator. The signal was detected with a XPI-Max 4 CCD camera (Princeton Instruments). The luminescence quantum yields were determined by comparison with the reference [Ru(2,2′-bipyridine)3]Cl2 in acetonitrile (Φem = 5.9%)[58] applying the following formula:2 Φem,sample=Φem,reference×Freference/Fsample×Isample/Ireference×nsample/nreference^2, 3 F=1−10^-A. Φem = luminescence quantum yield, F = fraction of light absorbed, I = integrated emission intensities, n = refractive index, A = absorbance of the sample at irradiation wavelength.

Excited state lifetime = assay type: physicochemical; settings: for τ air, excited state lifetime: air saturated acetonitrile; for τ degassed, excited state lifetime: degassed acetonitrile
Description: The sample was prepared in an air saturated as well as a degassed acetonitrile solution with an absorption of 0.2 at 355 nm. The sample was irradiated at 355 nm with a NT342B Nd-YAG pumped optical parametric oscillator (Ekspla). The emission was focused at right angle to the excitation pathway and directed to a Princeton Instruments Acton SP-2300i monochromator. The signal was detected with a R928 photomultiplier tube (Hamamatsu).

[3] = Singlet oxygen quantum yield, direct evaluation (1O2 phosphorescence); assay type: physicochemical
Description: Direct evaluation: the sample was prepared in an air-saturated acetonitrile or deuterated water solution with an absorption of 0.2 at 450 nm. The sample was irradiated at 450 nm with a mounted M450LP1 LED (Thorlabs), whose light was focused with aspheric condenser lenses. Using a T-Cube LED Driver (Thorlabs), the intensity of the irradiation was varied and monitored with an optical power and energy meter. The emission was focused at right angle to the excitation pathway and directed to a Princeton Instruments Acton SP-2300i monochromator. To cut off light at wavelengths shorter than 850 nm, a longpass glass filter was placed in front of the monochromator entrance slit. The signal was detected with an EO-817L IR-sensitive liquid-nitrogen cooled germanium diode detector (North Coast Scientific Corp.). The luminescence signal, centered at 1270 nm, was measured from 1100 to 1400 nm. The obtained data were analyzed upon plotting the integrated luminescence peaks against the percentage of the irradiation intensity. The slope of the linear regression was calculated and compared with the reference Rose Bengal (Φ = 76%)[59]. The absorption of the sample was corrected with an absorption correction factor. The singlet oxygen quantum yields were calculated using the following formula:4 Φsample=Φreference×Ssample/Sreference×Ireference/Isample, 5 I=I0×1−10^-A.
Φ = singlet oxygen quantum yield, S = slope of the linear regression of the plot of the areas of the singlet oxygen luminescence peaks against the irradiation intensity, I = absorption correction factor, I0 = light intensity of the irradiation source, and A = absorption of the sample at irradiation wavelength.

[4] = Singlet oxygen quantum yield, indirect evaluation (1O2 scavenger absorbance); assay type: physicochemical
Description: Indirect evaluation: measurement in acetonitrile: the sample was prepared in an air-saturated acetonitrile solution with an absorption of 0.2 at the irradiation wavelength, N,N-dimethyl-4-nitrosoaniline aniline (RNO, 24 µM) and imidazole (12 mM). Measurement in PBS buffer: the sample was prepared in an air-saturated PBS solution containing the complex with an absorption of 0.2 at the irradiation wavelength, N,N-dimethyl-4-nitrosoaniline aniline (RNO, 20 µM) and histidine (10 mM). The samples were irradiated for various time points with an Atlas Photonics LUMOS BIO irradiator. The absorption of the samples was constantly monitored with a SpectraMax M2 Microplate Reader (Molecular Devices). The difference in absorption (A0 − A) at 420 nm for the measurement in acetonitrile or at 440 nm for the measurement in PBS was determined. The difference in absorption was then plotted against the irradiation times and the slope of the linear regression calculated. The absorption of the sample was corrected with an absorption correction factor. The singlet oxygen quantum yields were calculated using the same formulas as used for the direct evaluation.

[5] = Distribution coefficient (shake-flask, octanol/PBS); assay type: physicochemical; settings: ICP-MS
Description: Using the “shake-flask” method, the distribution coefficient between the PBS and octanol phase of the sample was determined. The PBS and octanol phases were previously saturated in each other. The sample was dissolved in the phase, which is dissolving best the compound. This solution was added to an equal volume of the other phase and mixed at 190 rpm overnight with a sample mixer. Following this, the solutions were equilibrated for 4 h. The phases were carefully separated from each other. The amount of the sample in each phase was determined by ICP-MS. The evaluation was repeated three times and the ratio between the organic and aqueous phase determined.

[6] = tested on: human cervical carcinoma (HeLa) cells; experiment: (Photo-)cytotoxicity on 2D cell monolayers, HeLa; assay type: cell-based; settings: for IC50: 1-3 as chloride salts; for PI (480 nm): dark vs 480 nm; for PI (540 nm): dark vs 540 nm
Description: (§1) A total of 4 × 10^3 cells were seeded on 96-well plates and allowed to adhere overnight. The cells were treated with increasing concentrations of the sample diluted in cell media achieving a total volume of 200 μL. The cells were incubated with the sample for 8 h and, after this time, the medium refreshed. To study the phototoxic effect of the sample, the cells were exposed to 480 nm (spectral half-width: 20 nm, 10 min, 5.2 mW cm^−2, 3.1 J cm^−2) or 540 nm (spectral half-width: 30 nm, 40 min, 4.0 mW cm^−2, 9.5 J cm^−2) light using an Atlas Photonics LUMOS BIO irradiator. To study the dark cytotoxicity of the sample, the cells were not irradiated and the medium exchanged. The cells were grown for an additional 40 h at 37 °C. After this time, the medium was replaced with fresh medium containing resazurin with a final concentration of 0.2 mg mL^−1. The cells were incubated for 4 h and the amount of the fluorescent product resorufin determined (λex = 540 nm, λem = 590 nm) with a SpectraMax M2 Microplate Reader (Molecular Devices). The obtained data was analyzed with the GraphPad Prism software.

[7] = tested on: noncancerous retinal pigment epithelium (RPE-1) cells
Description: as §1

[8] = tested on: human glioblastoma astrocytoma (U373) cells;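 also: Resazurin-to-resorufin fluorescence viability readout, 8 h compound exposure then medium change, light dose 3.1 J cm^−2 at 480 nm or 9.5 J cm^−2 at 540 nm, analysed 40 h later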
[9] = tested on: noncancerous retinal pigment epithelium (RPE-1) cells; experiment: (Photo-)cytotoxicity on 2D cell monolayers, RPE-1; settings: for PI (480 nm): RPE-1, dark vs 480 nm; for PI (540 nm): RPE-1, dark vs 540 nm; for IC50: 1-3 as chloride salts
Description: as §1

[10] = 480 nm, read-out: IC50 480 nm (10 min, 3.1 J cm-2)
[11] = 540 nm, read-out: IC50 540 nm (40 min, 9.5 J cm-2)
[12] = read-out: IC50 540 nm (40 min, 9.5 J cm-2), RPE-1, 540 nm
[13] = read-out: IC50 dark, RPE-1, dark

Row | Structure (SMILES) | Φem, luminescence quantum yield [2] [%] | λem, emission maximum [2] [nm] | τ air, excited state lifetime (Excited state lifetime) [ns] | τ degassed, excited state lifetime (Excited state lifetime) [ns] | Singlet oxygen quantum yield, Direct 450 nm CH3CN [3] [%] | Singlet oxygen quantum yield, Indirect 450 nm CH3CN [4] [%] | Singlet oxygen quantum yield, Indirect 450 nm PBS [4] [%] | Singlet oxygen quantum yield, Indirect 540 nm CH3CN [4] [%] | Singlet oxygen quantum yield, Indirect 540 nm PBS [4] [%] | logD (octanol/PBS) [5] | IC50 [6, 10] [µM] | IC50 [6, 11] [µM] | PI (480 nm) [6] | PI (540 nm) [6] | IC50 ([6]; dark, read-out: IC50 dark) [µM] | IC50 [7] [µM] | IC50 [8] [µM] | PI (480 nm) [9] | PI (540 nm) [9] | IC50 [9, 12] [µM] | other results
1 | C(=C\c1ccnc(-c2cc(/C=C/c3ccccc3)ccn2)c1)/c1ccccc1.C(=C\c1ccnc(-c2cc(/C=C/c3ccccc3)ccn2)c1)/c1ccccc1.C(=C\c1ccnc(-c2cc(/C=C/c3ccccc3)ccn2)c1)/c1ccccc1.F[P-](F)(F)(F)(F)F.F[P-](F)(F)(F)(F)F.[Ru+2] [compound 1] | 1.9 | 677 | 86 | 385 | 65 | 66 | 5 | 61 | 3 | +2.6 ± 0.4 | 29.5 | 48.7 | > 3.4 | > 2.1 | > 100 | 30.9 | 83.1 | > 3.2 | > 3.2 | 31.7 | σ2, 2P absorption cross section [1]: 147 GM; IC50 [9, 13]: > 100 µM
2 | CN(C)c1ccc(/C=C/c2ccnc(-c3cc(/C=C/c4ccc(N(C)C)cc4)ccn3)c2)cc1.CN(C)c1ccc(/C=C/c2ccnc(-c3cc(/C=C/c4ccc(N(C)C)cc4)ccn3)c2)cc1.CN(C)c1ccc(/C=C/c2ccnc(-c3cc(/C=C/c4ccc(N(C)C)cc4)ccn3)c2)cc1.F[P-](F)(F)(F)(F)F.F[P-](F)(F)(F)(F)F.[Ru+2] [compound 2, [Ru((E,E′)-4,4′-Bis[p-(N,N-dimethylamino)styryl]-2,2′-bipyridine)3][PF6]2] | > 0.1 | 709 | 48 | 222 | 18 | 25 | 3 | 16 | 1 | +2.7 ± 0.4 | 29.4 | 52.3 | > 3.4 | > 1.9 | > 100 | 38.4 | 61.4 | > 2.6 | > 2.0 | 49 | σ2, 2P absorption cross section [1]: 2175 GM; IC50 [9, 13]: > 100 µM
3 | COc1ccc(/C=C/c2ccnc(-c3cc(/C=C/c4ccc(OC)cc4)ccn3)c2)cc1.COc1ccc(/C=C/c2ccnc(-c3cc(/C=C/c4ccc(OC)cc4)ccn3)c2)cc1.COc1ccc(/C=C/c2ccnc(-c3cc(/C=C/c4ccc(OC)cc4)ccn3)c2)cc1.F[P-](F)(F)(F)(F)F.F[P-](F)(F)(F)(F)F.[Ru+2] [compound 3, [Ru((E,E′)-4,4′-Bis[p-methoxystyryl]-2,2′-bipyridine)3][PF6]2] | 1.1 | 682 | 76 | 338 | 52 | 48 | 6 | 49 | 5 | +2.3 ± 0.3 | 15.3 | 11.3 | > 6.5 | > 8.8 | > 100 | 53.6 | 51.3 | > 1.9 | > 2.2 | 44.9 | σ2, 2P absorption cross section [1]: 573 GM; IC50 [9, 13]: > 100 µM
4 | COc1ccc(/C=C/c2ccnc(-c3cc(/C=C/c4ccc(OC)cc4)ccn3)c2)cc1.F[P-](F)(F)(F)(F)F.F[P-](F)(F)(F)(F)F.[Ru+2].c1ccc(-c2ccccn2)nc1.c1ccc(-c2ccccn2)nc1 [compound 7, [Ru(2,2′-bipyridine)2((E,E′)-4,4′-Bis[p-methoxystyryl]-2,2′-bipyridine)][PF6]2] | 2.8 | 664 | 96 | 542 | 75 | 77 | 11 | 68 | 10 | +0.5 ± 0.2 | 1.2 | 1.5 | > 83.3 | > 66.7 | > 100 | 3.1 | 13.5 | > 32.3 | > 11.9 | 8.4 | Singlet oxygen quantum yield in acetonitrile (range over methods and wavelengths) ([4]; acetonitrile, 450 and 540 nm, direct and indirect): 68–77%; Singlet oxygen quantum yield in aqueous solution (range over wavelengths) ([4]; aqueous solution, 450 and 540 nm): 10–11%; IC50 [9, 13]: > 100 µM
